The values that follow are results of earlier work, collected in patent US10028967B2, “Medicament” (Symrise AG, priority 2014, dated 2018).

For the series the following is noted: oral phenylephrine, compared to intravenous pseudoephedrine; reduced and variable.

SMILES strings stand for the structures.

For the molecule `CNC[C@H](O)c1cccc(O)c1` [Phenylephrine], the bioavailability result was “up to 38%”.
